The target in this test is human NK-3 receptor (Homo sapiens (Human), UniProt P29371). Briefly: 3H-SB222200 binding competition assay with human NK-3 receptor. The following applies: 3H-SB222200 displacement, CHO cell membranes expressing human NK3 receptor; read-out: Ki range. In a few lines: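 Radioligand displacement: 5 nM tritiated SB222200 competed by varying compound concentrations on recombinant CHO membranes bearing human NK3, buffer pH 7.4 with HEPES, NaCl, CaCl2, MgCl2, BSA and saponin. Filter-bound radioactivity quantified; calculated Ki given as ranges from +++ (<500 nM) to # (>5 μM).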

A value given as a limit tells only on which side of the number the result lay.

Usually Ki stands for a dissociation constant, usually derived from enzyme kinetics or from competition with a known ligand.

Sequence of human NK-3 receptor (P29371 whole entry): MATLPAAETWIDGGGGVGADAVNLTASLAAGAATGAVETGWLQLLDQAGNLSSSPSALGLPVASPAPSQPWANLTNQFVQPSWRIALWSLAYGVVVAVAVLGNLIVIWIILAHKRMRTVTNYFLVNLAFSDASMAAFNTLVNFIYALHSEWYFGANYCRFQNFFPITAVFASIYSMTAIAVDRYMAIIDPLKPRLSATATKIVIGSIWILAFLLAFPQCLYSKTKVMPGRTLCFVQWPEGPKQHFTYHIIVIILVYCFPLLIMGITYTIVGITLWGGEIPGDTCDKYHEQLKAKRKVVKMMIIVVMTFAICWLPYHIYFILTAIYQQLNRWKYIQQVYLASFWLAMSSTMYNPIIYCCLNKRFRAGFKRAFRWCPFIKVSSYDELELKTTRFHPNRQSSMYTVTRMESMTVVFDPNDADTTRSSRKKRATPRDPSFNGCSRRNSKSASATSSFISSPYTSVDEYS

With `O=C(c1ccc(F)cc1)N1CCn2c(nnc2-c2n[nH]c(-c3ccccc3)n2)C1` [Compound 178, (4-fluorophenyl)(3-(5-phenyl-1H-1,2,4-triazol-3-yl)-5,6-dihydro-[1,2,4]triazolo[4,3-a]pyrazin-7(8H)-yl)methanone], the Ki fell in the range of 1000 to 5000 nM.

Regarding `CN(C)c1ccc(-c2nc(-c3nnc4n3CCN(C(=O)c3ccc(F)cc3)C4)cs2)cc1` [Compound 221, (3-(2-(4-(dimethylamino)phenyl)thiazol-4-yl)-5,6-dihydro-[1,2,4]triazolo[4,3-a]pyrazin-7(8H)-yl)(4-fluorophenyl)methanone], the Ki fell in the range of 500 to 1000 nM.

Take `O=C(c1ccc(-c2ccc(F)cc2)cc1)N1CCn2c(nnc2-c2nc(-c3ccccc3)no2)C1` [Compound 223, (4′-fluoro-[1,1′-biphenyl]-4-yl)(3-(3-phenyl-1,2,4-oxadiazol-5-yl)-5,6-dihydro-[1,2,4]triazolo[4,3-a]pyrazin-7(8H)-yl)methanone]: the Ki is below 500 nM.

Take `C[C@H]1c2nnc(-c3ccc4ccccc4n3)n2CCN1C(=O)c1ccc(-c2cccs2)cc1` [Compound 163, (S)-(8-methyl-3-(quinolin-2-yl)-5,6-dihydro-[1,2,4]triazolo[4,3-a]pyrazin-7(8H)-yl)(4-(thiophen-2-yl)phenyl)methanone]: the inhibition constant Ki lay in the range of 500 to 1000 nM.

Take `O=C(c1ccc(F)cc1)N1CCn2c(nnc2-c2nc3ccccc3s2)C1` [Compound 59, (3-(benzo[d]thiazol-2-yl)-5,6-dihydro-[1,2,4]triazolo[4,3-a]pyrazin-7(8H)-yl)(4-fluorophenyl)methanone]: the Ki was below 500 nM.

Take `CN(C)c1ccc(C(=O)N2CCn3c(nnc3-c3csc(-c4ccc(F)cc4)n3)C2)cc1` [Compound 253, (4-(dimethylamino)phenyl)(3-(2-(4-fluorophenyl)thiazol-4-yl)-5,6-dihydro-[1,2,4]triazolo[4,3-a]pyrazin-7(8H)-yl)methanone]: the Ki was in the range of 500 to 1000 nM.

On to `CC1CN(C(=O)c2ccc(-c3cccs3)cc2)Cc2nnc(-c3csc(-c4ccc(F)cc4)n3)n21` (stereo not shown) [Compound 108, (3-(2-(4-fluorophenyl)thiazol-4-yl)-5-methyl-5,6-dihydro-[1,2,4]triazolo[4,3-a]pyrazin-7(8H)-yl)(4-(thiophen-2-yl)phenyl)methanone], for which the inhibition constant (Ki) lay in the range of 500 to 1000 nM.

For `O=C(c1ccc(F)cc1)N1CCn2c(nnc2-c2csc(N3CCCC3)n2)C1` [Compound 249, (4-fluorophenyl)(3-(2-(pyrrolidin-1-yl)thiazol-4-yl)-5,6-dihydro-[1,2,4]triazolo[4,3-a]pyrazin-7(8H)-yl)methanone], the Ki was below 500 nM.

With `O=C(c1ccc(F)cc1)N1CCn2c(nnc2-c2cc(-c3ccccc3)n[nH]2)C1` [Compound 269, (4-fluorophenyl)(3-(3-phenyl-1H-pyrazol-5-yl)-5,6-dihydro-[1,2,4]triazolo[4,3-a]pyrazin-7(8H)-yl)methanone], the inhibitory constant (Ki) was 500 to 1000 nM.

Take `O=C(c1ccc(-c2cccs2)cc1)N1CCn2c(nnc2-c2csc(-c3ncccn3)n2)C1` [Compound 226, (3-(2-(pyrimidin-2-yl)thiazol-4-yl)-5,6-dihydro-[1,2,4]triazolo[4,3-a]pyrazin-7(8H)-yl)(4-(thiophen-2-yl)phenyl)methanone]: the Ki was above 5000 nM.

Consider `C[C@H]1c2nnc(-c3csc(N4CCOCC4)n3)n2CCN1C(=O)c1ccc(-c2cccs2)cc1` [Compound 227, (S)-(8-methyl-3-(2-morpholinothiazol-4-yl)-5,6-dihydro-[1,2,4]triazolo[4,3-a]pyrazin-7(8H)-yl)(4-(thiophen-2-yl)phenyl)methanone], for which the Ki is 500 to 1000 nM.

For `O=C(c1ccc(-c2cccs2)cc1)N1CCn2c(nnc2-c2nc(-c3ccccc3)no2)C1` [Compound 174, (3-(3-phenyl-1,2,4-oxadiazol-5-yl)-5,6-dihydro-[1,2,4]triazolo[4,3-a]pyrazin-7(8H)-yl)(4-(thiophen-2-yl)phenyl)methanone], the Ki was below 500 nM.

As for `O=C(c1ccc(-c2ccccc2)cc1)N1CCn2c(nnc2-c2coc(-c3ccccc3)n2)C1` [Compound 50, [1,1′-biphenyl]-4-yl(3-(2-phenyloxazol-4-yl)-5,6-dihydro-[1,2,4]triazolo[4,3-a]pyrazin-7(8H)-yl)methanone], the Ki is below 500 nM.

For `Cn1nc(-c2ccc(Cl)c(Cl)c2)cc1C(=O)N1CCn2c(nnc2-c2ccccn2)C1` [Compound 14, (3-(3,4-dichlorophenyl)-1-methyl-1H-pyrazol-5-yl)(3-(pyridin-2-yl)-5,6-dihydro-[1,2,4]triazolo[4,3-a]pyrazin-7(8H)-yl)methanone], the Ki lay within 1000 to 5000 nM.

On to `O=C(c1ccc(F)cc1)N1CCn2c(nnc2-c2csc(-c3cccs3)n2)C1` [Compound 193, (4-fluorophenyl)(3-(2-(thiophen-2-yl)thiazol-4-yl)-5,6-dihydro-[1,2,4]triazolo[4,3-a]pyrazin-7(8H)-yl)methanone], for which the Ki is below 500 nM.

Turning to `O=C(c1ccc(-c2ccc(F)cc2)cc1)N1CCn2c(nnc2-c2csc(-c3cccs3)n2)C1` [Compound 196, (4′-fluoro-[1,1′-biphenyl]-4-yl)(3-(2-(thiophen-2-yl)thiazol-4-yl)-5,6-dihydro-[1,2,4]triazolo[4,3-a]pyrazin-7(8H)-yl)methanone], the Ki was below 500 nM.

As to `O=C(c1ccc(F)cc1)N1CCn2c(nnc2-c2cccc(N3CCOCC3)n2)C1` [Compound 38, (4-fluorophenyl)(3-(6-morpholinopyridin-2-yl)-5,6-dihydro-[1,2,4]triazolo[4,3-a]pyrazin-7(8H)-yl)methanone], the Ki was below 500 nM.

Take `O=C(c1ccc(-c2ccsc2)cc1)N1CCn2c(nnc2-c2csc(-c3ccccc3)n2)C1` [Compound 63, (3-(2-phenylthiazol-4-yl)-5,6-dihydro-[1,2,4]triazolo[4,3-a]pyrazin-7(8H)-yl)(4-(thiophen-3-yl)phenyl)methanone]: the inhibition constant Ki was below 500 nM.

`O=C(c1ccc(F)cc1)N1CCn2c(nnc2-c2csc(-c3ccc(N4CCCCC4)cc3)n2)C1` [Compound 244, (4-fluorophenyl)(3-(2-(4-(piperidin-1-yl)phenyl)thiazol-4-yl)-5,6-dihydro-[1,2,4]triazolo[4,3-a]pyrazin-7(8H)-yl)methanone]: the Ki was 500 to 1000 nM.

As to `C[C@H]1c2nnc(-c3csc(N4CCOCC4)n3)n2CCN1C(=O)c1ccc(-c2ccc(F)cc2)cc1` [Compound 161, (S)-(4′-fluoro-[1,1′-biphenyl]-4-yl)(8-methyl-3-(2-morpholinothiazol-4-yl)-5,6-dihydro-[1,2,4]triazolo[4,3-a]pyrazin-7(8H)-yl)methanone], the Ki is 1000 to 5000 nM.

In the case of `CC1c2nnc(-c3csc(-c4ccc(F)cc4F)n3)n2CCN1C(=O)c1ccc(-c2ccccc2)cc1` (stereo not shown) [Compound 79, [1,1′-biphenyl]-4-yl(3-(2-(2,4-difluorophenyl)thiazol-4-yl)-8-methyl-5,6-dihydro-[1,2,4]triazolo[4,3-a]pyrazin-7(8H)-yl)methanone], the inhibition constant Ki was below 500 nM.

As for `CC1c2nnc(-c3nc(-c4ccccc4)no3)n2CCN1C(=O)c1ccc(-c2cccs2)cc1` (stereo not shown) [Compound 85, (8-methyl-3-(3-phenyl-1,2,4-oxadiazol-5-yl)-5,6-dihydro-[1,2,4]triazolo[4,3-a]pyrazin-7(8H)-yl)(4-(thiophen-2-yl)phenyl)methanone], the Ki was below 500 nM.

These data come from patent publication US10544150B2, “NK-3 receptor selective antagonist compounds, pharmaceutical composition and methods for use in NK-3 receptors mediated disorders” (Ogeda SA, priority 2010, dated 2020).
